Conditions: 101.33 kPa, Liquid, Hot wire method

CCCC(C)C [2-methylpentane]
Conditions | thermal conductivity [W/m/K] | thermal diffusivity [m2/s]
256.56 K | 0.1182 | –
256.89 K | 0.1181 | –
257.29 K | 0.1179 | –
257.79 K | – | 8.23e-08
258.59 K | – | 8.18e-08
259.61 K | – | 8.15e-08
277.01 K | 0.1114 | –
277.35 K | 0.1113 | –
277.8 K | 0.1111 | –
278.28 K | – | 7.65e-08
279.1 K | – | 7.61e-08
280.22 K | – | 7.57e-08
297.36 K | 0.1049 | –
297.71 K | 0.1048 | –
298.16 K | 0.1046 | –
298.66 K | – | 7.11e-08
299.5 K | – | 7.09e-08
300.57 K | – | 7.04e-08
314.15 K | 0.09989 | –
314.51 K | 0.09978 | –
314.99 K | 0.09959 | –
315.5 K | – | 6.71e-08
316.34 K | – | 6.69e-08
317.47 K | – | 6.65e-08
328.29 K | 0.09597 | –
328.64 K | 0.09583 | –
329.15 K | 0.09564 | –
329.7 K | – | 6.42e-08
330.51 K | – | 6.39e-08
331.7 K | – | 6.36e-08

CC(C)CC(C)(C)C [2,2,4-trimethylpentane]
Conditions | thermal conductivity [W/m/K] | thermal diffusivity [m2/s]
259.11 K | 0.1042 | –
259.32 K | 0.1041 | –
259.52 K | 0.104 | –
259.89 K | – | 7.3e-08
260.43 K | – | 7.32e-08
260.92 K | – | 7.33e-08
277.52 K | 0.09971 | –
277.74 K | 0.09966 | –
277.93 K | 0.09958 | –
278.29 K | – | 6.86e-08
278.84 K | – | 6.88e-08
279.31 K | – | 6.87e-08
295.67 K | 0.09516 | –
295.9 K | 0.09509 | –
296.1 K | 0.09502 | –
296.41 K | – | 6.37e-08
296.96 K | – | 6.41e-08
297.45 K | – | 6.42e-08
313.79 K | 0.09108 | –
314.02 K | 0.091 | –
314.22 K | 0.09093 | –
314.56 K | – | 6.07e-08
315.1 K | – | 6.07e-08
315.57 K | – | 6.07e-08
327.69 K | 0.08786 | –
327.93 K | 0.0878 | –
328.14 K | 0.08771 | –
328.47 K | – | 5.82e-08
329.04 K | – | 5.83e-08
329.52 K | – | 5.81e-08

CCCC(C)(C)C [2,2-dimethylpentane]
Conditions | thermal conductivity [W/m/K] | thermal diffusivity [m2/s]
256.16 K | 0.1094 | –
256.52 K | 0.1091 | –
256.84 K | 0.109 | –
257.01 K | – | 7.66e-08
257.9 K | – | 7.58e-08
258.7 K | – | 7.56e-08
275.45 K | 0.1041 | –
275.83 K | 0.1039 | –
276.13 K | 0.1037 | –
276.31 K | – | 7.15e-08
277.21 K | – | 7.06e-08
277.95 K | – | 7.03e-08
296.32 K | 0.09819 | –
296.69 K | 0.09803 | –
297.02 K | 0.09794 | –
297.15 K | – | 6.57e-08
298.03 K | – | 6.53e-08
298.82 K | – | 6.49e-08
317.22 K | 0.09288 | –
317.63 K | 0.09264 | –
317.95 K | 0.09251 | –
318.05 K | – | 6.1e-08
318.98 K | – | 6.05e-08
319.72 K | – | 6.03e-08
336.91 K | 0.08793 | –
337.31 K | 0.08776 | –
337.64 K | 0.0876 | –
337.72 K | – | 5.67e-08
338.63 K | – | 5.61e-08
339.39 K | – | 5.59e-08

Source: the NIST ThermoML archive (doi:10.1021/je020125e)
